US12427171B2, “Krill oil composition enriched in LPC-DHA and LPC-EPA” (Aker BioMarine Human Ingredients AS, priority 2020, dated 2025)

Experiment: Mouse retinal fatty acid composition after daily gavage of free DHA, sn-1 DHA LPC or sn-2 DHA LPC for 30 days (GC/MS)
Assay type: in vivo
Details: 1 mg DHA daily by gavage
Method: Normal male mice (C57 BL/J6, 16-week-old) were gavaged daily with 1 mg DHA in the form of free DHA, sn-1 DHA LPC, or sn-2 DHA LPC in 80 μL corn oil for 30 days. Retinal FA composition was analyzed by GC/MS. Only the values for arachidonic acid and the omega-3 FA are shown here (mean±SD, 8 animals/group). […] SD: standard deviation; sn-1 and sn-2: stereospecific numbering 1 and 2 respectively; LPC: lysophosphatidylcholine; DHA: docosahexaenoic acid.
Animals and dietary treatments: All studies in animals described here were approved by the Institutional Animal Care and Use Committee of the University of Illinois at Chicago. The retina samples were obtained from our previous studies on the brain accretion of DHA in mice and rats, which were published previously. Male Sprague-Dawley rats (8-week-old) were purchased from Harlan laboratories (Indianapolis, IN, USA). Male C57 BL/J6 mice (2-4-months-old) were purchased from Jackson Laboratories (Bar Harbor. Maine).
In the first study, male Sprague-Dawley rats (n=5 per group, 8-week-old) were gavaged daily with 10 mg of DHA (40 mg DHA/kg body weight) in the form of TAG-DHA (DHASCO algal oil, DSM Nutritional Products, Columbia, MD, USA), synthetic di-DHA PC (phosphatidylcholine), or synthetic LPC-DHA (sn-1 acyl) for 30 days. The DHA was distributed equally among the three positions of TAG-DHA [17]. […] In the second study, 4-month-old male C57 BL/J6 mice (n=8 per group) were gavaged daily with 40 mg DHA/kg body weight in the form of free (unesterified) DHA, sn-1 acyl LPC-DHA, or sn-2 acyl LPC-DHA for 30 days as described previously. In the third study, male C57 BL/J6 mice (2-months-old, n=5 per group) were fed diets enriched with natural or lipase-treated fish oil or hill oil for 30 days. The total amount of omega-3 FA (eicosapentaenoic acid (EPA)+DHA) was 2.64 g/kg diet in all the diets. The untreated hill oil contained 18% of total omega-3 FA as LPC, whereas the lipase-treated hill oil contained >80% of the total omega-3 FA as LPC. The fish oil diets contained no LPC-EPA or LPC-DHA. The animals were trans-cardially perfused with ice cold phosphate buffered saline under anesthesia and the retinas were collected and kept frozen at −80° C. until the analysis.
Analytical procedures: The total lipids of retina were extracted by Bligh and Dyer procedure and the fatty acids were methylated using methanolic HCl. The fatty acid analysis was carried out by GC/MS (gas chromatography/mass spectroscopy) using Shimadzu QP2010SE equipped with Supelco Omegawax column, as described previously. Total ion current in the range of 50-400 m/z was used for quantification of the methyl esters. For LC/MS/MS (liquid chromatography/tandem mass spectroscopy) analysis, the lipids were extracted by the procedure of Ivanova et al.. The analysis of molecular species of phospholipids was performed on an ABSciex QTRAP mass spectrometer (Redwood City, CA, USA) coupled with Agilent 2600 UPLC system (Santa Clara, CA, USA), by multiple reaction monitoring. The internal standards 17:0 LPC, di 17:0 PC, and di 17:0 PE (phosphatidylethanolamine) were used for the quantification of the corresponding molecular species, without applying any correction factors for the differences in the ion intensity of different molecular species.
Statistics and correlations: The significance of differences between treatment groups was determined by a one-way ANOVA, with Tukey post-hoc multiple comparison corrections or unpaired t-test between control and treated samples adjusted with Holm-Sidak method (Graphpad Prism 8.0, San Diego, CA, USA).

SMILES: CC/C=C\C/C=C\C/C=C\C/C=C\C/C=C\C/C=C\CCC(=O)OC[C@@H](O)COP(=O)([O-])OCC[N+](C)(C)C [sn-1 DHA LPC]
- fatty acid composition of mouse retina, 12:0, Mean ± S.D.: 0.73 ± 0.47
- fatty acid composition of mouse retina, 14:0, Mean ± S.D.: 0.30 ± 0.17
- fatty acid composition of mouse retina, 16:0, Mean ± S.D.: 14.62 ± 1.22
- fatty acid composition of mouse retina, 16:0 DMA, Mean ± S.D.: 1.02 ± 0.32
- fatty acid composition of mouse retina, 16:1 (n-7), Mean ± S.D.: 0.47 ± 0.34
- fatty acid composition of mouse retina, 17:1 (n-7), Mean ± S.D.: 0.48 ± 0.38
- fatty acid composition of mouse retina, 18:0, Mean ± S.D.: 15.44 ± 1.50
- fatty acid composition of mouse retina, 18:0 DMA, Mean ± S.D.: 1.96 ± 0.30
- fatty acid composition of mouse retina, 18:1(n-7), Mean ± S.D.: 3.82 ± 0.62
- fatty acid composition of mouse retina, 18:1 (n-9), Mean ± S.D.: 15.56 ± 1.16
- fatty acid composition of mouse retina, 18:1 DMA, Mean ± S.D.: 0.78 ± 0.64
- fatty acid composition of mouse retina, 18:2 (n-6), Mean ± S.D.: 1.38 ± 0.49
- fatty acid composition of mouse retina, 18:3 (n-3), Mean ± S.D.: 0.51 ± 0.42
- fatty acid composition of mouse retina, 18:3 (n-6), Mean ± S.D.: 0.60 ± 0.47
- fatty acid composition of mouse retina, 20:0, Mean ± S.D.: 1.18 ± 0.72
- fatty acid composition of mouse retina, 20:1 (n-9), Mean ± S.D.: 2.87 ± 0.60
- fatty acid composition of mouse retina, 20:2 (n-6), Mean ± S.D.: 0.88 ± 0.95
- fatty acid composition of mouse retina, 20:3 (n-6), Mean ± S.D.: 1.44 ± 0.35
- fatty acid composition of mouse retina, 20:4 (n-6), Mean ± S.D.: 5.75 ± 0.71
- fatty acid composition of mouse retina, 20:5 (n-3), Mean ± S.D.: 1.91 ± 1.40
- fatty acid composition of mouse retina, 22:0, Mean ± S.D.: 1.24 ± 0.95
- fatty acid composition of mouse retina, 22:2 (n-6), Mean ± S.D.: 1.00 ± 0.76
- fatty acid composition of mouse retina, 22:4 (n-6), Mean ± S.D.: 2.23 ± 0.87
- fatty acid composition of mouse retina, 22:5 (n-3), Mean ± S.D.: 0.79 ± 0.76
- fatty acid composition of mouse retina, 22:6 (n-3), Mean ± S.D.: 22.57 ± 3.12
- fatty acid composition of mouse retina, 24:1 (n-9), Mean ± S.D.: 0.49 ± 0.17

SMILES: CC/C=C\C/C=C\C/C=C\C/C=C\C/C=C\C/C=C\CCC(=O)O[C@H](CO)COP(=O)([O-])OCC[N+](C)(C)C [sn-2 DHA LPC]
- fatty acid composition of mouse retina, 12:0, Mean ± S.D.: 0.73 ± 0.47
- fatty acid composition of mouse retina, 14:0, Mean ± S.D.: 0.30 ± 0.17
- fatty acid composition of mouse retina, 16:0, Mean ± S.D.: 14.62 ± 1.22
- fatty acid composition of mouse retina, 16:0 DMA, Mean ± S.D.: 1.02 ± 0.32
- fatty acid composition of mouse retina, 16:1 (n-7), Mean ± S.D.: 0.47 ± 0.34
- fatty acid composition of mouse retina, 17:1 (n-7), Mean ± S.D.: 0.48 ± 0.38
- fatty acid composition of mouse retina, 18:0, Mean ± S.D.: 15.44 ± 1.50
- fatty acid composition of mouse retina, 18:0 DMA, Mean ± S.D.: 1.96 ± 0.30
- fatty acid composition of mouse retina, 18:1(n-7), Mean ± S.D.: 3.82 ± 0.62
- fatty acid composition of mouse retina, 18:1 (n-9), Mean ± S.D.: 15.56 ± 1.16
- fatty acid composition of mouse retina, 18:1 DMA, Mean ± S.D.: 0.78 ± 0.64
- fatty acid composition of mouse retina, 18:2 (n-6), Mean ± S.D.: 1.38 ± 0.49
- fatty acid composition of mouse retina, 18:3 (n-3), Mean ± S.D.: 0.51 ± 0.42
- fatty acid composition of mouse retina, 18:3 (n-6), Mean ± S.D.: 0.60 ± 0.47
- fatty acid composition of mouse retina, 20:0, Mean ± S.D.: 1.18 ± 0.72
- fatty acid composition of mouse retina, 20:1 (n-9), Mean ± S.D.: 2.87 ± 0.60
- fatty acid composition of mouse retina, 20:2 (n-6), Mean ± S.D.: 0.88 ± 0.95
- fatty acid composition of mouse retina, 20:3 (n-6), Mean ± S.D.: 1.44 ± 0.35
- fatty acid composition of mouse retina, 20:4 (n-6), Mean ± S.D.: 5.75 ± 0.71
- fatty acid composition of mouse retina, 20:5 (n-3), Mean ± S.D.: 1.91 ± 1.40
- fatty acid composition of mouse retina, 22:0, Mean ± S.D.: 1.24 ± 0.95
- fatty acid composition of mouse retina, 22:2 (n-6), Mean ± S.D.: 1.00 ± 0.76
- fatty acid composition of mouse retina, 22:4 (n-6), Mean ± S.D.: 2.23 ± 0.87
- fatty acid composition of mouse retina, 22:5 (n-3), Mean ± S.D.: 0.79 ± 0.76
- fatty acid composition of mouse retina, 22:6 (n-3), Mean ± S.D.: 22.57 ± 3.12
- fatty acid composition of mouse retina, 24:1 (n-9), Mean ± S.D.: 0.49 ± 0.17
